Values quoted from earlier work as cited in patent US5723491A, “Fungicidal composition and method of controlling fungus infestation” (Novartis Corporation, priority 1994, dated 1998).
Like-named read-outs stand apart in the source and are kept apart here.

Settings: cited from earlier work

| SMILES | DT-50 (hydrolytic half-life) (pH9.25) | DT-50 (hydrolytic half-life) (20° C., pH1) | DT-50 (hydrolytic half-life) (20° C., pH9) |
| --- | --- | --- | --- |
| COC(=O)C(C)N(C(=O)Cc1ccccc1)c1c(C)cccc1C (racemic) [Benalaxyl, N-(2,6-dimethylphenyl)-N-(phenylacetyl)-DL-alanine methyl ester] | 86 days | – | – |
| COC(=O)C(C)N(C(=O)c1ccco1)c1c(C)cccc1C (racemic) [Furalaxyl, N-(2,6-dimethylphenyl)-N-(2-furanylcarbonyl)-DL-alanine methyl ester] | – | > 200 days | > 200 days |
